The text below walks through data of PubChem BioAssay (NCI).

Values joined by “and” are separate entries in the source; they are usually repeats but may differ in a detail not shown here. Equal entries are not always repeated.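 Test compounds were applied to cells in 96-well plates for 48 hours at 5 doses. The concentration for 50% growth inhibition is given as GI50. TGI is the concentration that stops growth completely.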

Test systems include CAKI-1 renal; CCRF-CEM leukemia; KM12 colon; DLD-1 colon; DMS 114 small cell lung; DMS 273 small cell lung; LXFL 529 NSCLC; M19-MEL melanoma; RPMI-8226 leukemia; SNB-78 CNS; XF 498 CNS; DU-145 prostate; MDA-MB-231 breast; MDA-MB-435; NCI/ADR-RES ovarian.
What all share (test): inhibition of tumour cell growth, NCI panel, 48 h

Consider `O=C(N/N=C/c1cc(Cl)cc(Cl)c1[O-])c1ccccc1O.O=C(N/N=C/c1cc(Cl)cc(Cl)c1[O-])c1ccccc1O.[Fe+2]`, for which the TGI in the test on CAKI-1 renal is 69.2 µM; in the test with CCRF-CEM leukemia it was > 100 µM; in the test on KM12 colon it was 41.8 µM. Moreover, the GI50 with KM12 colon was 15.5 µM.
Regarding `CCN(CC)CCCNC(=O)c1ccccc1Nc1c(Cl)cccc1Cl`, the TGI with CCRF-CEM leukemia was 21.3 µM; in the test on DLD-1 colon, 23.8 µM; in the test on DMS 114 small cell lung, 26.2 µM; in the test on DMS 273 small cell lung, 31.1 µM; in the test on LXFL 529 NSCLC, 28.8 µM; in the test with M19-MEL melanoma, 11 µM. In addition, the TGI was determined as 20.5 µM in the test with RPMI-8226 leukemia, 31.7 µM in the test with SNB-78 CNS and 9.71 µM in the test on XF 498 CNS.
As to `O=C(N/N=C/c1cc(Cl)cc(Cl)c1[O-])c1ccccc1O.O=C(N/N=C/c1cc(Cl)cc(Cl)c1[O-])c1ccccc1O.[Cu+2]`, the TGI in the test with CAKI-1 renal is 1.13 µM. Also, in the test on KM12 colon, the GI50 is 0.442 µM and the TGI worked out at 1.59 µM.
Turning to `CC(=O)C(C(=O)C(=O)Nc1cc(Cl)c(Cl)cc1Cl)c1csc(N)n1` (centres undefined), the TGI with CAKI-1 renal, in the test on CCRF-CEM leukemia, with DLD-1 colon, in the test with DMS 114 small cell lung, with DMS 273 small cell lung and with KM12 colon was > 100 µM each time. In addition, the TGI with LXFL 529 NSCLC, with M19-MEL melanoma, in the test on RPMI-8226 leukemia, in the test with SNB-78 CNS and in the test on XF 498 CNS was > 100 µM in each case.
Consider `Cn1cc(-c2csc(-c3cn(CCCN4CCCCC4)c4ccc(Br)cc34)n2)c2cccnc21`, for which the GI50 in the test with DU-145 prostate was 1.79 µM; with KM12 colon it was 1.89 µM; with MDA-MB-231 breast it was 1.72 µM; in the test on MDA-MB-435, 1.74 µM; with NCI/ADR-RES ovarian it was 1.92 µM. Also, the TGI was found to be 3.21 µM in the test on DU-145 prostate; 3.54 µM in the test on KM12 colon; 3.21 µM in the test on MDA-MB-231 breast; 3.16 µM with MDA-MB-435; 3.73 µM with NCI/ADR-RES ovarian.
As to `CC(=O)OC1(C)CC(C)C(=O)C(C(O)CC2CC(=O)NC(=O)C2)C1` (centres undefined), the TGI in the test with DU-145 prostate was 0.449 µM and 0.264 µM; in the test with KM12 colon it was 0.164 µM and 0.327 µM; with MDA-MB-231 breast, 0.196 µM; in the test on MDA-MB-435, 0.272 µM and 0.733 µM; in the test with NCI/ADR-RES ovarian it was 0.744 µM and 0.341 µM; in the test with RPMI-8226 leukemia, 0.0162 µM.
`O=[N+]([O-])c1cc(C(F)(F)F)cc2c1SC1=Nc3ccccc3CN12`: the TGI with CAKI-1 renal, in the test with CCRF-CEM leukemia, in the test on DLD-1 colon, in the test with DMS 114 small cell lung, with DMS 273 small cell lung and with KM12 colon was > 100 µM in each case. In addition, the TGI with M19-MEL melanoma, in the test on NCI/ADR-RES ovarian, with RPMI-8226 leukemia, with SNB-78 CNS and with XF 498 CNS was > 100 µM each time.
For `CCCCCC1CC(C(C)=O)CN1c1ccc(F)cc1` (centres undefined), the TGI with DLD-1 colon is > 100 µM; in the test on DMS 114 small cell lung it was 62 µM; with DMS 273 small cell lung, > 100 µM; in the test with KM12 colon, > 100 µM; with LXFL 529 NSCLC, > 100 µM; in the test on M19-MEL melanoma, > 100 µM. Further, the TGI was > 100 µM in the test with SNB-78 CNS and 52.5 µM with XF 498 CNS.
With `CCn1c(=O)c2c3ccc(O)cc3[nH]c2c2ccc(O)cc21`, the TGI in the test on CAKI-1 renal, in the test on CCRF-CEM leukemia, with DU-145 prostate, in the test with KM12 colon, in the test on MDA-MB-231 breast and in the test on MDA-MB-435 was > 100 µM in each case. In addition, the TGI with NCI/ADR-RES ovarian was > 100 µM.
